Assay results as given in patent US20200376003A1, “PHARMACEUTICAL COMPOSITION FOR PREVENTING OR TREATING CHOLESTEROL GALLSTONE COMPRISING URSODEOXYCHOLIC ACID (UDCA) AND OMEGA-3 FATTY ACID, AND PROCESS FOR PRODUCING THE SAME” (INDUSTRY-ACADEMIC COOPERATION FOUNDATION, YONSEI UNIVERSITY, priority 2019, published 2020).
Entries after “also recorded” stand apart in the source; their conditions may differ.

System: mice with gallstones formed due to a high-cholesterol diet
Experiment: Treatment of cholesterol gallstones in mice with gallstones formed by a high-cholesterol (lithogenic) diet, 12 weeks of drug administration
Format: in vivo, C57BL/6J male mice
Protocol: An overall schematic diagram of the animal experiment is as illustrated in FIG. 1. This will be described below in more detail. C57BL/6J male mice were purchased from Central Lab. Animal Inc. The mice were allowed to have a 4-week compliance period under a condition of controlled light (a cycle of 12-hour light and 12-hour darkness in which darkness is from 6:30 pm to 6:30 am), temperature (22±4° C.), and humidity (50%±20%). The mice had ad libitum access to water (autoclaved distilled water) and were fed commercial feed (Scientific Animal Food & Engineering/+40RMM) containing 2.9% fat, 15.2% protein, and 60.7% carbohydrate. In addition, a lithogenic diet (DYET #102136; Dyets, Inc., Bethlehem, Pa., USA) containing cholesterol (10 g/kg) and cholic acid (5 g/kg) was given for 8 weeks, so that mice with gallstones formed due to a high-cholesterol diet were created.
The mice with gallstones formed due to a high-cholesterol diet were divided into the following groups and experiments were conducted for 12 weeks:
Each of the mice of the control group (1) was administered, using a sonde, 0.3 ml of a mixture of 0.75% Tween 80 and distilled water. The mice of the groups (2) to (4) were administered, using a sonde, a product obtained by diluting 12.5 mg/kg/day of UDCA and 51 mg/kg/day of omega-3 fatty acid in 0.75% Tween 80. […]
After 12 weeks of drug administration, animals were sacrificed and gallbladder tissue was obtained. […] After the high-cholesterol diet, body weight and liver weight were measured; and after the normal diet and therapeutic agent administration, body weight and liver weight were measured (FIG. 2). […]
The size of gall stones in the gallbladder tissue obtained in Example 1 was analyzed on the basis of FIG. 4 (FIGS. 5 and 6). […]
Changes in the weight of liver gallstones after the high-cholesterol diet (base) and after the therapeutic agent administration were analyzed (FIGS. 7 and 8).

[1] = Example 2, anatomical changes before and after 12 weeks of drug administration, normal diet

C[C@H](CCC(=O)O)[C@H]1CC[C@H]2[C@@H]3[C@@H](O)C[C@@H]4C[C@H](O)CC[C@]4(C)[C@H]3CC[C@]12C [UDCA, 3α,7β-dihydroxy-5β-cholanoic acid]
amount of gallstones after administration (FIG. 3) [1]: insignificantly decreased
size of gallstones after administration (FIG. 3) [1]: slightly decreased; also recorded: insignificant changes
size of gallstones, analysed on the classification chart of FIG. 4 (FIGS. 5 and 6) (Example 3, after high-cholesterol diet vs after therapeutic agent administration): no change in size
